Read-outs that look alike come from different tables or passages of the source.
Columns and labels:
[1] = test system: mouse NSC neurosphere cultures; assay: Dose-response curves and EC50, neurosphere MTT proliferation, 7 days; assay type: cell-based
[2] = test system: murine neural precursor cells (neurosphere cultures); assay: HTS of LOPAC library against secondary neurosphere cultures, MTT proliferation assay at 3 μM, day 7 (z score, P value); assay type: cell-based, mouse
[3] = test system: ptc1+/− medulloblastoma precursor cells (neurosphere cultures); assay: Medulloblastoma tumor sphere MTT proliferation EC50; assay type: cell-based, mouse
Text: Astrocyte Screen and Neurosphere Selectivity Assessment. […] Murine Medulloblastoma Generation and Culture. […] Flow Cytometry. […] Results

[4] = Table 8, read-out: Neurosphere EC50
[5] = LOPAC primary screen, neurosphere MTT proliferation, 3 μM, day 7
[6] = yes/no: significantly inhibited neurosphere proliferation (P<0.01) in the primary screen
[7] = Mus musculus, read-out: EC 50% Neurosphere, Table 5
[8] = Mus musculus, Table 8, read-out: Neurosphere EC50
[9] = LOPAC library screen, 3 μM, MTT, secondary neurosphere cultures, day 7
[10] = yes = significantly inhibited neurosphere proliferation (P<0.01) in the primary screen
[11] = read-out: EC 50% Neurosphere, Table 5
[12] = 168 h, normal mouse neurosphere cultures, MTT, 7 days, read-out: Neurosphere EC50
[13] = Mus musculus, ptc1+/− medulloblastoma derived neurospheres, read-out: Medulloblastoma Neurosphere EC50
[14] = cultures derived from mouse cerebellar tumor samples, read-out: Ptch1+/− neurosphere EC50
[15] = normal mouse neurosphere cultures, MTT, 7 days, read-out: Neurosphere EC50
[16] = LOPAC library screen at 3 μM, secondary neurosphere cultures, MTT
[17] = LOPAC screen, neurosphere MTT proliferation, 3 μM, day 7
[18] = yes/no: significantly inhibited neurosphere proliferation (P<0.01) in primary screen
[19] = ptc1+/− medulloblastoma derived neurospheres, read-out: Medulloblastoma Neurosphere EC50
[20] = primary LOPAC screen, 3 μM, MTT, neurosphere proliferation
[21] = yes/no: significantly inhibited neurosphere proliferation in the primary screen
[22] = yes/no: significantly inhibited neurosphere proliferation in primary screen
[23] = LOPAC library screen, 3 μM, MTT, neurosphere cultures

CCCCCCCCCCC/C=C\C(C)(C)/C=C\CCCC(=O)O [7,7-Dimethyl-(5Z,8Z)-eicosadienoic acid]
EC50 [1, 4]: 5170 nM
Z Score [2]: −3.045
Z score [2, 5]: −3.045
Activity [2, 6]: yes

CC(C)COCC(CN(Cc1ccccc1)c1ccccc1)N1CCCC1 (stereo not drawn) [Bepridil (28), Bepridil, reference compound]
EC50 [1, 7]: 2700 nM
EC50 [1, 8]: 2700 nM
Z Score [2, 9]: −2.655
Z score [2, 5]: −2.655
Activity [2, 10]: yes

CN1CCN(c2nc3cc(C(F)(F)F)ccc3n3cccc23)CC1.O=C(O)/C=C\C(=O)O [CGS-12066A (40), reference compound]
EC50 [1, 4]: 2010 nM
EC50 [1, 11]: 2010 nM
Z Score [2, 9]: −2.575
Z score [2, 5]: −2.575
Activity [2, 10]: yes

c1ccc2c(c1)[I+]c1ccccc1-2 [Diphenyleneiodonium (33), Diphenyleneiodonium, reference compound]
EC50 [1, 7]: 11 nM
EC50 [1, 8]: 11 nM
Z Score [2, 9]: −10.07
Z score [2, 5]: −10.068
Activity [2, 10]: yes

CC1=C(/C=C/C(C)=C/C=C/C(C)=C/C(=O)Nc2ccc(O)cc2)C(C)(C)CCC1 [Fenretinide (11), Retinoic acid p-hydroxyanilide]
EC50 [1, 12]: 334 nM
EC50 [1, 7]: 334 nM
EC50 [1, 8]: 334 nM
Z Score [2, 9]: −6.013
Z score [2, 5]: −6.013
Activity [2, 6]: yes
EC50 [3, 13]: 204 nM
EC50 [3, 14]: 204 nM

S=C=Nc1cccc(C2(N3CCCCC3)CCCCC2)c1 [Metaphit (35), Metaphit, reference compound]
EC50 [1, 7]: 10000 nM
EC50 [1, 8]: 10000 nM
Z Score [2]: −4.967
Z score [2, 5]: −4.967
Activity [2, 6]: yes

CC[C@H](C)C(=O)O[C@H]1CCC=C2C=C[C@H](C)[C@H](CC[C@@H]3C[C@@H](O)CC(=O)O3)[C@H]21 [Mevastatin (20), Mevastatin]
EC50 [1, 8]: 142 nM

COc1ccc(CCNC[C@H](O)c2ccc(O)cc2)cc1OC [R(−)-Denopamine (24), R(−)-Denopamine]
EC50 [1, 4]: 39200 nM

Oc1ccc(-c2nc(-c3ccc(F)cc3)c(-c3ccncc3)[nH]2)cc1 [SB 202190 (13)]
EC50 [1, 4]: 8060 nM
EC50 [1, 15]: 8060 nM
EC50 [1, 11]: 8060 nM
Z Score [2, 16]: −1.124
Z score [2, 17]: −1.124
Activity [2, 18]: no
EC50 [3, 14]: 3010 nM
EC50 [3, 19]: 3010 nM

CC(C)COC(=O)OCN1C(=O)CN(CCN2CC(=O)N(COC(=O)OCC(C)C)C(=O)C2)CC1=O [Sobuzaxane (19), Sobuzaxane]
EC50 [1, 4]: 10200 nM

CC(=O)O[C@H]1C(=O)[C@@]2(C)[C@H]([C@H](OC(=O)c3ccccc3)[C@]3(O)C[C@H](OC(=O)[C@H](O)[C@@H](NC(=O)c4ccccc4)c4ccccc4)C(C)=C1C3(C)C)[C@]1(OC(C)=O)CO[C@@H]1C[C@@H]2O [Taxol (21), Taxol]
EC50 [1, 8]: 10 nM

CC[C@]1(O)C[C@@H]2CN(CCc3c([nH]c4ccccc34)[C@@](C(=O)OC)(c3cc4c(cc3OC)N(C)[C@H]3[C@@](O)(C(=O)OC)[C@H](OC(C)=O)[C@]5(CC)C=CCN6CC[C@]43[C@@H]65)C2)C1 [Vinblastine(22), Vinblastine]
EC50 [1, 8]: 28 nM

COc1cc2ncnc(Nc3ccc(O)cc3)c2cc1OC [WHI-P131 (12), 4-(4′-hydroxylphenyl)-amino-6,7-dimethoxyquinazoline]
EC50 [1, 12]: 2350 nM
EC50 [1, 7]: 2350 nM
EC50 [1, 8]: 2350 nM
EC50 [3, 13]: 1520 nM
EC50 [3, 14]: 1520 nM

Cl.Cl.OCCN1CCN(CC/C=C2/c3ccccc3Sc3ccc(C(F)(F)F)cc32)CC1 [cis-(Z)-Flupenthixol (7), cis-(Z)-Flupenthixol]
EC50 [1, 4]: 199 nM
EC50 [1, 15]: 199 nM
EC50 [1, 11]: 199 nM
Z Score [2, 9]: −8.822
Z score [2, 5]: −8.822
Activity [2, 6]: yes
EC50 [3, 14]: 187 nM
EC50 [3, 19]: 187 nM

(R)-(−)-Propylnorapomorphine [(R)-(−)-Propylnorapomorphine (5)]
EC50 [1, 4]: 351 nM
EC50 [1, 15]: 351 nM
EC50 [1, 11]: 351 nM
Activity [2]: yes
Z Score [2]: −8.274
Z score [2]: −8.274
EC50 [3, 14]: 199 nM
EC50 ([3]; read-out: Medulloblastoma Neurosphere EC50): 199 nM

L(−)-Norepinephrine bitartrate
Z Score [2, 9]: −1.418
Z score [2, 20]: −1.418
Activity [2, 21]: no

L-Hyoscyamine
Activity [2]: no
Z Score [2]: −0.661
Z score [2]: −0.661

L-Methionine sulfoximine
Activity [2]: no
Z Score [2]: 0.08671
Z score [2]: 0.087

LY-310,762 hydrochloride
Z Score [2]: 0.05111
Z score [2, 5]: 0.051
Activity [2, 6]: no

LY-367,265
Z Score [2]: −0.407
Z score [2, 5]: −0.407
Activity [2, 18]: no

MDL 26,630 trihydrochloride
Z Score [2]: 0.3274
Z score [2, 5]: 0.327
Activity [2, 10]: no

Metaproterenol hemisulfate
Z Score [2, 16]: −1.022
Z score [2, 5]: −1.022
Activity [2, 10]: no

NCS-356
Z Score [2]: 2.833
Z score [2, 5]: 2.833
Activity [2, 10]: no

NS 521 oxalate
Z Score [2]: −11.27

NSC 95397
Z Score [2]: −1.098
Z score [2, 5]: −1.098
Activity [2, 6]: no

O-(Carboxymethyl)hydroxylamine hemihydrochloride
Z Score [2]: −2.058
Z score [2, 20]: −2.058
Activity [2, 21]: no

Oxotremorine sesquifumarate salt
Z Score [2]: 0.8552
Z score [2, 5]: 0.855
Activity [2, 22]: no

Phenylbenzene-omega-phosphono-alpha-amino acid
Z Score [2]: −0.01423
Z score [2, 5]: −0.014
Activity [2, 22]: no

Picrotoxin
Z Score [2]: 0.7771
Z score [2, 5]: 0.777
Activity [2, 22]: no

Piribedil maleate
Z Score [2, 16]: −0.3345
Z score [2, 5]: −0.334
Activity [2, 6]: no

Quipazine dimaleate
Z Score [2]: −1.444
Z score [2, 5]: −1.444
Activity [2, 22]: no

R(−)-2,10,11-Trihydroxy-N-propylnoraporphine hydrobromide
Z Score [2]: −2.744

R(−)-2,10,11-Trihydroxyaporphine hybrobromide
Z Score [2]: −3.309

R(−)-Apocodeine hydrochloride
Z Score [2]: −9.865
Z score [2, 5]: −9.865
Activity [2, 6]: yes

R(−)-Denopamine
Z Score [2, 9]: −4.486
Z score [2, 5]: −4.486
Activity [2, 6]: yes

R(−)-Isoproterenol (+)-bitartrate
Z Score [2, 9]: −1.485
Z score [2, 5]: −1.485
Activity [2, 18]: no

R(−)-Me5
Z Score [2]: −1.414
Z score [2, 5]: −1.414
Activity [2, 10]: no

R(−)-N6-(2-Phenylisopropyl)adenosine
Z Score [2, 9]: −2.023
Z score [2, 5]: −2.023
Activity [2, 22]: no

R(−)-N-Allylnorapomorphine hydrobromide
Z Score [2]: −7.839
Z score [2, 5]: −7.839
Activity [2, 6]: yes

R-(−)-Desmethyldeprenyl hydrochloride
Z Score [2]: −0.5056
Z score [2, 17]: −0.506
Activity [2, 18]: no

R-(−)-Fluoxetine hydrochloride
Activity [2]: no
Z Score [2, 16]: −0.1281

S(−)-Atenolol
Z Score [2, 23]: 0.617
Z score [2, 20]: 0.617
Activity [2, 21]: no

S(−)-Timolol maleate
Z Score [2, 16]: −0.7675
Z score [2, 5]: −0.767
Activity [2, 22]: no

S(−)-Willardiine
Z Score [2]: 1.251
Z score [2, 20]: 1.251
Activity [2, 21]: no

S(−)-p-Bromotetramisole oxalate
Z Score [2]: −1.295
Z score [2, 5]: −1.295
Activity [2, 22]: no

S-(−)-Carbidopa
Z Score [2, 9]: −2.314
Z score [2, 17]: −2.314
Activity [2, 18]: no

S-(−)-Eticlopride hydrochloride
Z Score [2]: −5.158

S-(−)-Lisuride
Z Score [2]: −0.1473
Z score [2]: −0.147

SKF 83565 hydrobromide
Activity [2, 22]: no

Terbutaline hemisulfate
Z Score [2, 23]: 0.6409
Z score [2, 20]: 0.641
Activity [2, 21]: no

Tyrphoslin AG 34 [Tyrphoslin AG 34 (37)]
EC50 [1, 4]: 9920 nM

Tyrphostin AG 808
Z Score [2, 9]: −1.315
Z score [2, 20]: −1.315
Activity [2, 21]: no

Vinblastine sulfate salt
Z Score [2]: −9.396
Z score [2, 5]: −9.396
Activity [2, 6]: yes

WB 64
Z Score [2]: −1.683
Z score [2, 20]: −1.683
Activity [2, 21]: no

m-Iodobenzylguanidine hemisulfate
Activity [2]: yes
Z Score [2]: −2.564
Z score [2]: −2.564

trans-(±)-ACPD
Z score [2, 20]: 0.315
Activity [2, 21]: no
